# Test results from US20120121692A1, “COMPOUNDS AND COMPOSITIONS COMPRISING CDK INHIBITORS AND METHODS FOR TREATING CANCER” (SHANDONG UNIVERSITY, priority 2009, published 2012).
# Experiments:
# HCT116 cells = assay: MTT cytotoxicity screening, human colon cancer cell line HCT116; format: cell-based; conditions: Homo sapiens, HCT-116, 48 hrs incubation, absorbance 490 nm, primary screening, read-out: IC50
# Source text: Human colon cancer cell line HCT116 can be used for the preliminary cytotoxicity screening of the disclosed compounds as disclosed by Mosmann, T., “Rapid colorimetric assay for cellular growth and survival: application to proliferation and cytotoxicity assays.” J. Immunol. Methods, (1983) 65(1-2): p. 55-63 referred to herein further as the “MTT test” which is incorporated herein by reference in its entirety.
# The disclosure of Mosmann recites the following. “MTT 93-(4,5-dimethylthirazol-2-yl)-2,5-diphenyl tetrazolium bromide; Sigman catalog no. M2128) was dissolved in PBS at 5 mg/ml and filtered to sterilize and remove a small amount of insoluble residue present in some batches of MTT. At the times indicated below, stock MTT solution (10 ml per 100 ml) was added to all wells of an assay, and plates were incubated at 37° C. for 4 h. Acid-siopropanol (100 ml of 0.04 N HCl in isopropanol) was added to all wells and mixed thoroughly to dissolve the dark blue crystals. After a few minutes at room temperature to ensure that all crystals were dissolved, the plates were read o a Dynatech MR580Microelisa reader, using a test wavelength of 570 nm, a reference wavelength of 630 nm, and a calibration setting of 1.99 (or 1.0 if the samples were strongly colored). Plates were normally read within 1 h of adding the isopropanol.
# “Our final procedure was to add 0.01 ml MTT (5 mg/ml in phosphate-buffered saline) to 0.1 ml cells in growth medium. After 4 h at 37° C. for MTT cleavage, the formazan product was solublilized by the addition of 0.1 ml 0.04 N HCl in isopropanol. Optical density was measured on a Dynatech MR 580 plate reader, using a reference wavelength of 630 nm and a test wavelength of 570 nm.” 3-(4,5-Dimethylthiazol-2-yl)-2,5-diphenyltetrazolium bromide, a tetrazole, can pass through cellular membrane to enter into cells. This tetrazole may be reduced to the purple formazan in the mitochondria of living cells, which can diffuse out to form crystals. This crystal can be dissolved in the dimethyl sulfoxide to form a colored solution. The absorbance of this colored solution can be quantified by measuring at certain wavelength (490 nm) using a spectrophotometer. The quantity of the formazan crystal is proportional to the number of living cells.
# As used herein, cells were cultured in McCoy's 5A medium supplemented with 10% heat-inactivated Fetal Bovine Serum (FBS) and 5% Penicillin/Streptomycin solution. McCoy's 5A, 1× (Iwakata & Grace modified) medium with L-Glutamine, DPBS, 1× w/o Ca and Mg, Penicillin/Streptomycin solution, Trypsin EDTA, 1× and PBS, 1× w/o Ca and Mg were purchased from Mediatech, Inc. (USA). FBS was purchased from Hyclone (USA).
# The cytotoxicity of the compounds was estimated using the MTT assay. A 96-well plate was seeded with 100 μl medium containing HCT116 cells in suspension at a density of 2.5×10^4 cells/ml. After 24 hours of incubation, the cells were treated with the compounds, which were dissolved in DMSO (dimethyl sulfoxide) as stock solutions and diluted to final concentrations of 100 μM, 50 μM, 25 μM, 12.5 μM, 6.25 μM & 1 μM (for compounds tested in the micromolar concentrations) and 10 μM, 1 μM, 500 nM, 250 nM, 125 nM & 62.5 nM (for compounds tested in the nanomolar concentration range) using medium containing 0.1% DMSO. The final concentration of DMSO in the culture medium was maintained at 0.1%-0.001% (v/v). After 48 hrs incubation in the presence of test compounds, the spent medium was removed and the wells were washed twice with 100 μL of PBS solution. 100 μL of fresh medium and 10 μL of MTT (5 mg/ml in PBS) was added to the wells and incubated at 37° C. in dark for 4 hrs. The formazan product was dissolved by adding 100 μL of 100% DMSO after removing the medium from each well and was stabilized by adding 12.5 μL of Sorensen's glycine buffer to each well. […]
SMILES,IC50 (HCT116 cells),melting point
"COc1cc(OC)c(C2=CCNCC2)c(O)c1C(=O)/C=C/c1ccc(O)cc1 [Compound B11, (E)-1-(2-hydroxy-4,6-dimethoxy-3-(1,2,3,6-tetrahydropyridine-4-yl)phenyl)-3-(4-hydroxyphenyl)-2-propylene-1-one]",4.03 µM,109 to 110 °C
"COc1cc(OC)c(C2=CCNCC2)c(O)c1C(=O)/C=C/c1ccc(Cl)cc1 [Compound B12, (E)-3-(4-chlorophenyl)-1-(2-hydroxy-4,6-dimethoxy-3-(1,2,3,6-tetrahydropyridine-4-yl)phenyl)-2-propylene-1-one]",4.82 µM,93 to 94 °C
"COc1cc(OC)c(C2=CCNCC2)c(O)c1C(=O)/C=C/c1ccc(Br)cc1 [Compound B13, (E)-3-(4-bromophenyl)-1-(2-hydroxy-4,6-dimethoxy-3-(1,2,3,6-tetrahydropyridine-4-yl)phenyl)-2-propylene-1-one]",18.2 µM,120 to 121 °C
"COc1cc(OC)c(C2=CCNCC2)c(O)c1C(=O)/C=C/c1ccc(N(C)C)cc1 [Compound B14, (E)-3-(4-dimethylaminophenyl)-1-(2-hydroxy-4,6-dimethoxy-3-(1,2,3,6-tetrahydropyridine-4-yl)phenyl)-2-propylene-1-one]",32 µM,127 to 128 °C
"COc1cc(OC)c(C2=CCNCC2)c(O)c1C(=O)/C=C/c1ccc(C#N)cc1 [Compound B15, (E)-3-(4-cyanophenyl)-1-(2-hydroxy-4,6-dimethoxy-3-(1,2,3,6-tetrahydropyridine-4-yl)phenyl)-2-propylene-1-one]",7.3 µM,135 to 136 °C
"COc1ccc(/C=C/C(=O)c2c(OC)cc(OC)c(C3=CCNCC3)c2O)c(OC)c1OC [Compound B16, (E)-1-(2-hydroxy-4,6-dimethoxy-3-(1,2,3,6-tetrahydropyridine-4-yl)phenyl)-3-(2,3,4-trimethoxyphenyl)-2-propylene-1-one]",5.54 µM,98 to 100 °C
"COc1cc(/C=C/C(=O)c2c(OC)cc(OC)c(C3=CCNCC3)c2O)cc(OC)c1OC [Compound B17, (E)-1-(2-hydroxy-4,6-dimethoxy-3-(1,2,3,6-tetrahydropyridine-4-yl)phenyl)-3-(3,4,5-trimethoxyphenyl)-2-propylene-1-one]",4.2 µM,124 to 125 °C
"COc1ccc(/C=C/C(=O)c2c(OC)cc(OC)c(CN3CCCCC3)c2O)cc1 [Compound C2, (E)-1-(2-hydroxy-4,6-dimethoxy-3-(piperidin-1-ylmethyl)phenyl)-3-(4-methoxyphenyl)-2-propylene-1-one]",5.46 µM,129 to 130 °C
COc1cc(OC)c(C(=O)/C=C/c2cccc(Cl)c2)c(O)c1CN1CCCCC1 [Compound C4],3.87 µM,134 to 135 °C
"COc1cc(OC)c(C(=O)/C=C/c2ccc(C)cc2)c(O)c1CN1CCOCC1 [Compound D1, (E)-1-(2-hydroxy-4,6-dimethoxy-3-(morpholin-4-ylmethyl)phenyl)-3-(4-methylphenyl)-2-propylene-1-one]",14.8 µM,126 to 127 °C
"COc1ccc(/C=C/C(=O)c2c(OC)cc(OC)c(CN3CCOCC3)c2O)cc1 [Compound D2, (E)-1-(2-hydroxy-4,6-dimethoxy-3-(morpholin-4-ylmethyl)phenyl)-3-(4-methoxyphenyl)-2-propylene-1-one]",21.4 µM,159 to 160 °C
"COc1cc(OC)c(C(=O)/C=C/c2ccc(Cl)cc2)c(O)c1CN1CCOCC1 [Compound D3, (E)-3-(4-chlorophenyl)-1-(2-hydroxy-4,6-dimethoxy-3-(morpholin-4-ylmethyl)phenyl)-2-propylene-1-one]",6.97 µM,140 to 141 °C
